Like-named read-outs stand apart in the source and are kept apart here.
Columns and labels:
[1] = biological target: central-type benzodiazepine receptor (CBR); conditions: rat cerebral cortex membranes, [3H]flunitrazepam; cited from earlier work
TSPO [2] = biological target: T1, TSPO (Rattus norvegicus, UniProt P16257); conditions: cited from earlier work
T1 construct: were assessed to membrane preparations from rat cerebral cortex as described previously; from tissue; host or cells: rat cerebral cortex membranes

[3] = Transport across MDCKII-MDR1 cell monolayer; conditions: dog, MDCK-MDR1, pH 7.4
Protocol: (§7) The apparent permeability coefficient (Papp) of each compound was calculated on the basis of the amounts permeated through MDCKII-MDR1 monolayer by the equation: Papp=VA dC/A[D]in dt where VA (dC/dt) is the linear appearance rate of mass in the receiver solution; A is the filter/cell surface area and [D]in is the initial tested compound concentration in the apical (AP) chamber. The Papp values were evaluated in apical to basolateral direction. […] On an experimental day, the integrity of the cell monolayer was assessed by measuring the transendothelial electrical resistance (TEER) value.
(§8) The bi-directional transport study was conducted as previously reported [15]. A Transwell® 12 plate consisting of differentiated MDCKII-MDR1cells plated on polyester microporous filters (12 mm diameter, 0.4 µm pore size, 0.5 mL apical volume, 1.5 mL basolateral volume) at a density of 100,000 cells/cm^2, was used for the permeability assay. The integrity of the cell monolayer was assessed by measuring the TEER value in each well, using an epithelial volt-ohm meter (EVOM). Cell monolayers with TEER 120–140 Ohm/cm^2 were used. […] Fresh assay medium was placed in the receiver compartment. […] After incubation time of 2 h, samples were removed from the apical side of the monolayer and then analyzed. […] All experiments were repeated three times and each compound was tested in triplicate.

[4] = Chemical stability in 50 mM phosphate buffer pH 7.4 at 37 °C; format: physicochemical; conditions: 0.05 M phosphate buffer pH 7.4, 37 °C; read-out: t1/2 (h) PBS (converted)
Protocol: (§1) The chemical stability of the TSPO-ligand MTX conjugates 3 and 4 was evaluated in 50 mM phosphate buffer solution at pH 7.4 and 37 °C; the physiological stability was also determined using a dilute rat serum solution (50% v/v) at 37 °C. The aim of this work is the synthesis of TSPO ligand-MTX conjugates in order to improve the plasma stability and having less side effects than MTX. In addition TSPO ligand-MTX conjugates could enhance the transport across BBB and due a tumor targeting effect for the TSPO moiety, might selectively deliver the antineoplastic agent to brain tumors and prolong its efficacy. The TSPO-ligand MTX conjugates 3 and 4 are stable in buffer solution at pH 7.4 and enough stable in physiological medium with their half-lives exceeding 3 h. […] In addition, CB86 (m/z = 407, [M + Na]^+) (Figure 1), most likely originating from the degradation of ligand 2, as previously shown, could be detected. Other products arising from the further degradation of the anticancer drug were found.
TSPO ligand-MTX conjugates 3 and 4 chemical stabilities were studied at pH 7.4 in 0.05 M phosphate buffer at 37 °C. […] At appropriate time intervals, aliquots of 100 µL of each sample were removed, filtered through cellulose acetate membranes (0.22 µm, Advantec MFS, Pleasanton, CA, USA), and then 20 µL of filtrates were immediately analyzed by HPLC. […]

[5] = biological target: central-type benzodiazepine receptor (CBR); experiment: Radioligand binding assay, displacement of [3H]flunitrazepam from rat cerebral cortex membranes
Protocol: (§2) The IC50 values were determined from the displacement curves using the reference compound [^3H]-PK 11195, for TSPO, or [^3H]flunitrazepam for CBR. The data obtained, expressed as IC50 values, as well as the ratios between CBR and TSPO affinity, respectively (Selectivity Index, SI), as a measure of the in vitro selectivity, are shown in Table 2 and were compared with unlabeled TSPO selective ligand PK 11195, and with CBR selective ligand flunitrazepam. […] Moreover, the SI of TSPO-ligand MTX conjugate 3 is similar to the reference compound PK 11195. […] Thus, the binding quantification of TSPO ligands is confounded by the expression of different forms of TSPO and to assess the potentially therapeutic use of TSPO-ligands would be appropriate to genetically test the patients.
(§3) Binding assays ([^3H]Flunitrazepam and [^3H]PK 11195 bindings) were assessed to membrane preparations from rat cerebral cortex as described previously. The IC50 values (GraphPad Prism software, (La Jolla, CA, USA)) were determined from the displacement curves using the reference compound [^3H]-PK11195, for TSPO or [^3H]flunitrazepam, for CBR, respectively. The selectivity index (SI) was calculated from: IC50(CBR)/IC50(TSPO).

RG2 rat glioma cells = experiment: Cytotoxicity by MTT assay, RG2 cells; format: cell-based; conditions: Glioma cell, 24 h exposure
From the text: (§4) These cellular lines were selected for their high expression level of TSPO and, therefore, have been used extensively for in vitro experiments on the brain tumor models and for cytotoxicity studies relating to anticancer drugs, as well as TSPO-ligands and its nanodevices. The tested compounds show high cytotoxicity on all cell lines, especially for C6 rat glioma cells. In particular, the TSPO-ligand MTX α-conjugates 3 appears to be the most cytotoxic displaying a lower IC50 value compared to MTX on C6 cells.
(§5) Rat RG2 and C6 glioma cells were grown in DMEM (Dulbecco’s modified Eagle’s medium, Sigma Aldrich, Milano, Italy) nutrient supplemented with 10% heat inactivated FBS (Fetal Bovine Serum, Sigma Aldrich), 2 mM, L-glutamine, penicillin (100 U/mL), and streptomycin (100 µg/mL) at 37 °C in a humidified 5% CO2 atmosphere. Cells were fed every day and seeded in 96-well plates at a density of ~5000 cells/well for assays. MTX and TSPO ligand-MTX conjugates were dissolved in DMSO at initial concentrations of 1000 µg/mL and then diluted with medium. Cells were exposed to different concentrations of compounds (0.1–1000 nM) for 24 h.
(§6) Cell viability was evaluated by MTT (3-(4,5-dimethylthiazol-2-yl)-2,5-diphenyltetrazolium bromide) assay as previously described. In brief, 10 µL of MTT (5.0 mg/mL) was added to the cells and cultured at 37 °C, in a humidified 5% CO2 atmosphere for 2 h. After this period, medium was removed and the cells were replaced with 150 µL of a DMSO/ethanol (1:1) solution per well. The absorbance of the individual well was measured by microplate reader (Wallac Victor3, 1420 Multilabel Counter, Perkin-Elmer (Waltham, MA, USA). All experiments were repeated three times and each compound’s concentration was tested in triplicate.

SF188 human glioma cells = experiment: Cytotoxicity by MTT assay, SF188 cells; format: cell-based; conditions: SF-188
[6] = Stability in diluted rat serum solution (50% v/v) at 37 °C; format: in vitro ADME; conditions: diluted rat serum (50% v/v), pH 7.4, 50% v/v rat serum, pH 7.4, 37 °C, read-out: t1/2 (h) Diluted Rat Serum
Protocol: as §1
The TSPO ligand-MTX conjugates 3 and 4 stabilities in physiological medium were studied at 37 °C in 0.05 M phosphate buffer and 0.14 M NaCl at pH 7.4, containing 50% v/v of rat serum. […] Samples were centrifuged at 3500 rpm for 10 min, and the supernatant was removed, filtered through cellulose acetate membranes (0.22 µm, Advantec MFS) and then 20 µL of filtrates were immediately analyzed by HPLC. […]

TSPO [7] = biological target: T1, TSPO; experiment: Radioligand binding assay, displacement of [3H]-PK 11195 from rat cerebral cortex membranes; conditions: for SI (selectivity index): IC50(CBR)/IC50(TSPO); for IC50: rat cerebral cortex membranes, [3H]-PK 11195
Protocol: as §2, §3

C6 rat glioma cells = experiment: Cytotoxicity by MTT assay, C6 cells; format: cell-based; conditions: Glioma cell, 24 h exposure
From the text: as §4, §5, §6

SF126 human glioma cells = experiment: Cytotoxicity by MTT assay, SF126 cells; format: cell-based; conditions: SF-126
in vitro = conditions: dog, MDCK-MDR1, pH 7.4
Protocol: as §7, §8

In the case of `CCCN(CCC)C(=O)Cc1c(-c2ccc(Cl)cc2)nc2c(NC(=O)CN)cccn12` [Compound 2, N,N-dipropyl-[2-(8-(2-aminoacetamido)-2-(4-chlorophenyl)imidazo[1,2-a]pyridin-3-yl)]acetamide], the IC50 [1] is listed as greater than 100000 nM, the “SI (selectivity index)” value (TSPO [2]; IC50(CBR)/IC50(TSPO)) is listed as >4.1 × 10^3 and the IC50 (TSPO [2]; read-out: IC50 (nM) TSPO Cortex, rat cerebral cortex membranes, [3H]-PK 11195) is listed as 24 ± 4.2 nM.

Molecule `CCCN(CCC)C(=O)Cc1c(-c2ccc(Cl)cc2)nc2c(NC(=O)CNC(=O)C(CCC(=O)O)NC(=O)c3ccc(N(C)Cc4cnc5nc(N)nc(N)c5n4)cc3)cccn12` (centres unmarked) [Compound 3, 5-(2-(2-(4-Chlorophenyl)-3-(2-(dipropylamino)-2-oxoethyl)imidazo[1,2-a]pyridin-8-ylamino)-2-oxoethylamino)-4-(4-(((2,4-diaminopteridin-6-yl)methyl)(methyl)amino)benzamido)-5-oxopentanoic acid] has a Papp at 2 h, 75 µM [3] of 3.65 ×10⁻⁶ cm/s, a half-life [4] of 144 ± 25 h and an IC50 [5] greater than 100000 nM. The IC50 (RG2 rat glioma cells) was 4.2 ± 3.2 nM, the IC50 (SF188 human glioma cells) was 9.2 ± 3.4 nM and the half-life [6] was greater than 3 h. The “SI (selectivity index)” value (TSPO [7]) was >1.4 × 10^4, the IC50 (TSPO [7]) was 7.2 ± 2.1 nM and the IC50 (C6 rat glioma cells) was 1.2 ± 0.7 nM. The melting point was 210 °C (dec.) and the IC50 (SF126 human glioma cells) was 14.2 ± 4.2 nM.

Molecule `CCCN(CCC)C(=O)Cc1c(-c2ccc(Cl)cc2)nc2c(NC(=O)CNC(=O)CCC(NC(=O)c3ccc(N(C)Cc4cnc5nc(N)nc(N)c5n4)cc3)C(=O)O)cccn12` (centres unmarked) [Compound 4, 5-(2-(2-(4-Chlorophenyl)-3-(2-(dipropylamino)-2-oxoethyl)imidazo[1,2-a]pyridin-8-ylamino)-2-oxoethylamino)-2-(4-(((2,4-diaminopteridin-6-yl)methyl)(methyl)amino)benzamido)-5-oxopentanoic acid] has a Papp at 2 h, 75 µM [3] of 3.32 ×10⁻⁶ cm/s, a half-life [4] of 74 ± 12 h and an IC50 [5] greater than 100000 nM. The IC50 (RG2 rat glioma cells) was 15.2 ± 2.9 nM, the IC50 (SF188 human glioma cells) was 18.2 ± 2 nM and the half-life [6] was greater than 3 h. For the same molecule, the “SI (selectivity index)” value (TSPO [7]) was >2.5 × 10^3, the IC50 (TSPO [7]) was 40.3 ± 3.8 nM and the IC50 (C6 rat glioma cells) was 2.2 ± 0.6 nM. The melting point was 190 °C (dec.) and the IC50 (SF126 human glioma cells) was 25 ± 2.6 nM.

For `CN1C(=O)CN=C(c2ccccc2F)c2cc([N+](=O)[O-])ccc21` [Flunitrazepam], the IC50 [1] is listed as 5.1 ± 0.5 nM.

Work on `CN(Cc1cnc2nc(N)nc(N)c2n1)c1ccc(C(=O)N[C@@H](CCC(=O)O)C(=O)O)cc1` [MTX, 2,4-diamino-N^10-methylpteroylglutamic acid, reference compound] yielded a Papp at 2 h, 75 µM (in vitro) of 0.091 ×10⁻⁶ cm/s, an IC50 (RG2 rat glioma cells) of 3.8 ± 1.5 nM and an IC50 (SF188 human glioma cells) of 1.2 ± 0.2 nM. The IC50 (C6 rat glioma cells) was 2.6 ± 0.8 nM and the IC50 (SF126 human glioma cells) was 1.2 ± 0.3 nM.

For `CCC(C)N(C)C(=O)c1cc2ccccc2c(-c2ccccc2Cl)n1` (centres unmarked) [PK11195], the IC50 [1] is given as greater than 100000 nM.

Reference: PMC4926499, “TSPO Ligand-Methotrexate Prodrug Conjugates: Design, Synthesis, and Biological Evaluation” (International Journal of Molecular Sciences, 2016)
